Source: patent US20210052701A1, “Methods of Treating Vascular Leakage Using CXCL12 Peptides” (The Medical College of Wisconsin, Inc., priority 2018, published 2021)

Columns and labels:
[1] = test system: hPPAEC; assay: Effects of CXCR4 agonists / CXCL12 variants on thrombin-induced impairment of hPPAEC monolayer permeability; assay type: cell-based, human
Method: FIGS. 3A-3D show effects of CXCL12 and ubiquitin on thrombin-induced impairment of hPPAEC monolayer permeability. hPPAEC were grown to a confluent monolayer on collagen-coated permeable membranes. (A) hPPAEC were pre-treated with vehicle, 100 nM of CXCL12 or ubiquitin for 10 minutes, as indicated, and then exposed to thrombin (50 nM), followed by the addition of FITC-dextran. Vehicle: no thrombin. Endothelial permeability was assessed by measuring the amount of FITC-dextran that permeated through the cell monolayer. No cells: 100% permeability (open circles). RFU: Relative fluorescence units. N=3 in quadruplicate. *: p<0.05 vs. vehicle/thrombin. (B-D) hPPAEC were exposed to 35 nM of thrombin or vehicle. After 10 min, thrombin-exposed cells were treated with vehicle, CXCL12 (50 nM) and/or AMD3100 (10 μM) (B), with vehicle, ubiquitin (50 nM) and/or AMD3100 (10 μM) (C) or with various concentrations of ubiquitin (D) followed by the addition of FITC-dextran. The experimental conditions are indicated. Endothelial permeability was assessed by measuring the amount of FITC-dextran that permeated through the cell monolayer. RFU: Relative fluorescence units. N=3 in quadruplicate. *: p<0.05 vs. thrombin/vehicle (2-way ANOVA/Bonferroni's multiple comparison post hoc test).
(§1) FIGS. 7A-7D show dose-dependent effects of CXCL12α/β, CXCL12 (3-68) and CXCL12 mutants K27A/R41A/R47A, R47E and S-S4V on thrombin-induced impairment of hPPAEC monolayer permeability. hPPAEC cells were grown to a confluent monolayer on collagen-coated permeable membranes. hPPAEC were then exposed to 35 nM of thrombin. After 10 min, thrombin-exposed cells were treated with vehicle or 50 nM (A), 5 nM (B), 0.5 nM (C) or 0.05 nM (D) of the various proteins, as indicated. In (D) 5 nM CXCL12a was used as a positive control. N=3 in quadruplicate.
as §1, with “8A-8D” for “7A-7D”, “CXCL12α, CXCL121” for “CXCL12α/β, CXCL12 (3-68)”, “CXCL122” for “CXCL12 mutants K27A/R41A/R47A, R47E and S-S4V”, “CXCL12α” for “CXCL12a”
FIGS. 9A-9B show inhibition of thrombin-induced hyper-permeability of hPPAEC by CXCL12/CXCL12 variants. % inhibition: % inhibition of thrombin-induced hyperpermeability. Data from FIGS. 7 and 8 at t=255 min. N=3 in quadruplicate. *: p<0.05 vs. CXCL12a (2-way ANOVA/Bonferroni's multiple comparison post hoc test).
(§2) In vitro vascular permeability assays—Permeability assays were obtained from Millipore (ECM642) and performed as per manufacturer's instructions. In brief, 96-well collagen-coated permeability assay plates were pre-hydrated for 15 min, 5×10^5 cells were seeded on each well and grown to a confluent monolayer for 48 hours. Fluorescein isothiocyanate (FITC)-dextran (20 μg/mL) was then added on top of the monolayer and the amount of FITC-dextran that permeated through the monolayer was quantified by measuring fluorescence in a Synergy 2 Multi-mode Microplate Reader (BioTek, Winooski, Vt.) at various time points over a 255 min time period.

[2] = test system: hPPAEC; assay: In vitro vascular permeability assay (FITC-dextran), hPPAEC monolayer, CXCR4/ACKR3 ligands without thrombin; assay type: cell-based, human; conditions: 50 nM ligand for 10 min, then FITC-dextran; no thrombin
Method: FIGS. 1A-1B show expression of CXCR4, ACKR3 and CXCR4:ACKR3 heteromers on hPPAEC and effects of CXCR4/ACKR3 ligands on hPPAEC monolayer permeability. (A) Detection of CXCR4, ACKR3 and CXCR4:ACKR3 heteromers on hPPAEC by PLA. Typical PLA images for the detection of individual receptors and CXCR4:ACKR3 heteromers. Images show merged PLA/40,6-diamidino-2-phenylindole dihydrochloride (DAPI) signals. Ctrl: Omission of one secondary antibody. (B) hPPAEC were grown to a confluent monolayer on collagen-coated permeable membranes. Cells were then exposed to vehicle or 50 nM of CXCR4/ACKR3 ligands for 10 minutes, as indicated, followed by the addition of FITC-dextran. Endothelial permeability was assessed by measuring the amount of FITC-dextran that permeated through the cell monolayer. N=3 in quadruplicate. No cells: 100% permeability, open squares. RFU: Relative fluorescence units. *: p<0.05 vs. vehicle (2-way ANOVA/Bonferroni's multiple comparison post hoc test).
Cells and cell lines—Human primary pulmonary artery endothelial cells (hPPAEC) (ATCC, PCS-100-022) and the human lung microvascular endothelial cell line HULEC-5a (ATCC, CRL-3244) were cultured in vascular cell basal medium (ATCC, PCS-100-030) with endothelial cell growth kit-VEGF (ATCC, PCS-100-041). The HTLA cell line, a HEK293 cell line stably expressing a tTA-dependent luciferase reporter and a β-arrestin2-TEV fusion gene, was generously provided by the laboratory of Dr. Bryan Roth and maintained in high glucose Dulbecco's Modified Eagle's Medium supplemented with 10% (vol/vol) FBS, 1× non-essential amino acids, 100 U/mL penicillin, 100 μg/mL streptomycin, 50 μg/mL hygromycin B, and 2 μg/mL puromycin. All cells were cultured at 37° C., 5% CO2 in a humidified atmosphere.
as §2

[3] = test system: animal model of acute respiratory distress syndrome (ARDS); assay: Animal model of ARDS: lung ischemia reperfusion injury plus hemorrhage (P:F ratio, lung injury score); assay type: in vivo, Sprague-Dawley rats; conditions: for development of ARDS (P:F ratio): 0.14 μmol/kg i.v. within 10 min after reperfusion, until t=300 min; for histological signs of lung injury, injured lung (lung injury score): H&E sections, vs. vehicle
Method: Animals underwent 70 min of […] lung ischemia for 70 min plus hemorrhage to a MAP of 40 mmHg for the last 30 min of ischemia, followed by fluid resuscitation to a MAP of 60 mmHg until t=300 min. Arrow: drug injection. Dashed lines indicate the P:F ratio (mmHg) threshold values for the diagnosis of mild, moderate and severe ARDS. Vehicle: n=5. CXCL12: n=3. CXCL12: n=4. CXCL12-LM: n=3, CXCL12-LD: n=4. CXCL12 K27A/R41A/R47A: n=3. LI+HEM: lung ischemia reperfusion injury plus hemorrhage. Data are mean±SEM. *: p<0.05 vs. vehicle (2-way ANOVA/Dunnett's multiple comparisons test).
FIGS. 12A-12C show lung histology after treatment with CXCL12 and engineered CXCR4 agonists A. Lung specimens were placed in formalin fixative solution and were then embedded in paraffin wax, sliced into 5 μm sections and stained with H&E. Representative images from H&E stained lung sections from animals after vehicle (left) and CXCL12 ([…], right treatment. B/C. Lung injury scores (B. uninjured (left) lung; C. injured (right) lung). Data are median±interquartile ranges. Data were analyzed with the Kruskal Wallis test with Dunn's multiple comparisons test. The level of statistical significance (p) vs. ctrl. (vehicle treatment) indicated.
We tested therapeutic efficacy of wild-type CXCL12, CXXL12-locked dimer (LD), CXCL12-locked monomer (LM) and the triple mutant CXCL12 K27A/R41A/R47A in an animal model of acute respiratory distress syndrome (ARDS) (FIG. 11). All drugs were injected in a dose of 0.14 μmol/kg. Male Sprague-Dawley rats were anesthetized, orotracheally intubated, instrumented with arterial/venous catheters, and mechanically ventilated (PEEP 2 mmHg, FiO2 1.0). After a right lateral thoracotomy, a suture was tied around the hilum of the right lung. Animals underwent 70 min of right lung ischemia plus hemorrhage to a mean arterial blood pressure (MAP) of 40 mmHg for the last 30 min of lung ischemia. At t=70 min, the suture was removed, animals were ventilated with FiO2 1.0, PEEP 5 mmHg and resuscitated with crystalloids to a MAP of 60 mmHg until t=300 min. Vehicle and drugs were injected i.v. within 10 min after reperfusion.
We further evaluated histomorphology of the lungs from animals treated with vehicle, wild-type CXCL12, CXCL12-LD and CXCXL12-LM utilizing a standardized lung injury score. Lung slides stained with hematoxylin and eosin were examined under a light microscope by 4 investigators blinded to the identity of the specimens. The lung injury score was assessed as previously described/. In brief each investigator rendered a score of 0 (no damage) to 4+(maximal damage) based on an injury grading scale composed of six criteria. The slides were assessed for the extent of alveolar congestion, hemorrhage and edema, as well as alveolar and vessel wall PMN infiltration and alveolar wall thickness. […] Lung injury scores of the uninjured and injured lungs from animals treated with vehicle, wild-type CXCL12, CXCL12-LD and CXCXL12-LM are shown in FIGS. […], respectively.

[4] = molecular target: T1, CXCR4 (Homo sapiens, UniProt P61073); assay: Presto-Tango β-arrestin 2 recruitment assay for CXCR4; assay type: cell-based
T1 construct: host or cells: HTLA cells (HEK293 line stably expressing a tTA-dependent luciferase reporter and a β-arrestin2-TEV fusion gene)
Method: FIGS. 6A-6F show Presto-Tango β-arrestin 2 recruitment assays for CXCR4 (A-C) and ACKR3 (D-F). RLU %: % of the luminescence signal for 1 μM CXCL12α. N=9 for CXCL12a and n=3 for all other proteins.
Presto-Tango β-arrestin 2 recruitment assay—The PRESTO-Tango (parallel receptorome expression and screening via transcriptional out-put, with transcriptional activation following arrestin translocation) assay was performed as recently described. The Tango plasmids were a gift from Dr. Bryan Roth (all from Addgene). HTLA cells (2.5×10^5/well) were seeded in a 6-well plate and transfected with 1.5 μg of the Tango plasmids using Lipofectamine 3000 (ThermoScientific). The following day, transfected HTLA cells (1×10^5 cells/well) were plated onto Poly-L-Lysine pre-coated 96-well micro-plates and allowed to attach to the plate surface for at least 4 hours prior to treatment. Proteins used for treatment were prepared in twice the final concentration in culture media, added at a 1:1 vol/vol ratio and incubated overnight at 37° C., 5% CO2 in a humidified environment. The following morning, media was removed from cell culture plates and replaced with a 100 μL 1:5 mixture of Bright-Glo (Promega) and 1×HBSS, 20 mM HEPES solution. Plates were then incubated at room temperature before measuring luminescence on a Biotek Synergy II plate reader.

T1 sequence (P61073 whole entry, the tested form may be a part): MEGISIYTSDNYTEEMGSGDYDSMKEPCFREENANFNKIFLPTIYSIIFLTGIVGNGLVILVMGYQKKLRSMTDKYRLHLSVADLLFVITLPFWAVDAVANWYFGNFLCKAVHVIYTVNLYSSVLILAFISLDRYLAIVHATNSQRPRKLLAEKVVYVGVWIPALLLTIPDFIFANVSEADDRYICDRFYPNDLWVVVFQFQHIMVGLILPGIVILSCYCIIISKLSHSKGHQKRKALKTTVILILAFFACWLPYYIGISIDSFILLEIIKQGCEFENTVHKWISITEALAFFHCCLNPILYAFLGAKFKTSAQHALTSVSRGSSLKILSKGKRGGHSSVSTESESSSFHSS

Molecule	effect on thrombin-induced permeability of hPPAEC when added after thrombin ([1]; thrombin 35 nM, after 10 min CXCL12 or ubiquitin 50 nM, AMD3100 10 μM)	antagonism of the CXCL12 effect on thrombin-induced permeability ([1]; thrombin 35 nM, CXCL12 50 nM plus AMD3100 10 μM)	effect on hPPAEC monolayer permeability [2]	development of ARDS (P:F ratio) [3]	histological signs of lung injury, injured lung (lung injury score) [3]	potency (EC50) to recruit β-arrestin 2 to CXCR4, compared with CXCL12α [4]	potency to attenuate thrombin-induced permeability of hPPAEC (in words) [1]	concentration at which thrombin-mediated hPPAEC barrier impairment was affected ([1]; tested 0.05-50 nM, t=255 min)
c1cc(CN2CCCNCCNCCCNCC2)ccc1CN1CCCNCCNCCCNCC1 [AMD3100]	did not affect thrombin-mediated hyper-permeability of hPPAEC	could be antagonized	did not affect hPPAEC permeability					
CXCL121: constitutively monomeric CXCL12 variant with L55C and I58C substitutions (SEQ ID NO:2)				prevented development of ARDS	significantly reduced	no statistically significant differences		
CXCL122: constitutively dimeric, disulfide-locked CXCL12 variant containing L36C/A65C mutations (SEQ ID NO:3)				prevented development of ARDS	significantly reduced	no statistically significant differences	significantly reduced potency	50 nM
CXCL11: an ACKR3 and CXCR3 agonist (protein, UniProt O14625 22-94, looked up) C-X-C motif chemokine 11: FPMFKRGRCLCIGPGVKAVKVADIEKASIMYPSNNCDKIEVIITLKENKGQRCLNPKSKQARLIIKKVERKNF			did not affect hPPAEC permeability					
